In US20090111736A1, “Orally-Absorbed Solid Dose Formulation for Vancomycin” (SRI International, priority 2007, published 2009):
Where a name gives a salt, the structure may show the parent alone.

Columns and labels:
[1] = tested on: rat colon; test: In vitro mucosal-to-serosal vancomycin transport, modified Ussing chambers, colon; format: in vitro ADME; details: 5 mg/ml vancomycin in HEPES buffer
Source text: (§1) We investigated regional variation in permeation of vancomycin (VCM) across various segments of rat intestine and colon in vitro by mounting isolated segments of rat intestine and colon between horizontal modified Ussing chambers. The effects of drug concentration and of addition of a p-glycoprotein inhibitor or permeation enhancer(s) as formulation additives on VCM permeation were also studied in vitro using segments of rat jejunum.
(§2) Methods: A modified Ussing system (Easy mount Ussing system, Physiological Instruments Inc., CA, Item # EM-CSYS-8) with eight sets of chambers was used for all in vitro studies; each set consisted of two parallel diffusion chambers, a heating block for temperature control, needle valves for gas flow adjustment and gas mixing, and Ag/AgCl voltage and current electrodes for measuring transepithelial voltage and for passing current.
(§3) Harvesting of required small intestinal or colon segments of a male rat was performed using experimental procedures described in the literature (Gotoh et al., J Biomol Screen (2005) 10:517-23). The harvested segments of small intestine or colon were mounted on sliders placed between the two horizontal chambers of a modified Ussing system.
(§4) VCM was dissolved in HEPES buffer pH 7.4 (Table 1) previously saturated with 100% O2 or HEPES buffer containing additives selected from permeation enhancer(s) and/or an efflux transport inhibitor (Table 2) to obtain predetermined concentrations of drug and additive(s).
(§5) Drug transport across epithelial membranes of harvested rat small intestine and colon segments, in mucosal-to-serosal (M-to-S) direction, was studied using modified Ussing Chambers. Aliquots of HEPES buffer (5 ml) were initially added to both the mucosal and serosal chambers and allowed to equilibrate for 20 minutes. The HEPES buffer in the mucosal chamber was replaced by a study sample containing VCM alone or VCM and selected additive(s) in HEPES buffer, e.g., 5 mg/mL of VCM dissolved in HEPES buffer containing 10% w/w Labrasol®. Aliquots of 0.5 mL buffer solutions were removed periodically from serosal chambers, and replaced with equal volumes of fresh warm (37±2° C.) HEPES buffer previously saturated with 100% O2. To study the effect of additives in the serosal chamber (i.e., quinidine and sodium decanoate), HEPES buffer containing the selected additive was placed in the serosal chamber and replaced with the same buffer composition during sampling.
(§6) Changes in transepithelial short-circuit current (in micro-Amps) and membrane resistance (in Ohms) as a function of time were monitored continuously during in vitro studies to serve as indicators of tissue viability and drug permeability, respectively. The buffer samples from the receptor chambers were analyzed for VCM content on a high pressure liquid chromatograph (HPLC; Hewlett Packard Model 1100 series).
(§7) The analysis of VCM samples was performed using a reverse phase gradient HPLC method, with a Hypersil BDS C18 column, 5 μm, 150×4.6 mm., mobile phase consisting of 5 mM potassium phosphate monobasic in water (pH 3) as solvent A and acetonitrile as solvent B at a flow rate of 1 ml/min (Farin et al., J Pharm Biomed Anal (1998) 18:367-72). The eluant was monitored by a UV/diode array detector at 280 nm.
(§8) To compare data obtained from different in vitro experiments, the apparent permeability coefficients were calculated using the equation: […]
(§9) Where dQ/dt is the linear appearance rate of mass in receiver compartment, C0 is the initial solute concentration in donor compartment, and A is the surface area (Luo et al., Drug Metab Dispos (2002) 30:763-70).

[2] = as above; format: in vitro ADME, rat; details: male, rat, pH 7.4, 5 mg/ml, HEPES buffer alone
Source text: as §1, §2, §3, §4, §5, §6, §7, §8, §9

CN[C@H](CC(C)C)C(=O)N[C@H]1C(=O)N[C@@H](CC(N)=O)C(=O)N[C@H]2C(=O)N[C@H]3C(=O)N[C@H](C(=O)N[C@H](C(=O)O)c4cc(O)cc(O)c4-c4cc3ccc4O)[C@H](O)c3ccc(c(Cl)c3)Oc3cc2cc(c3O[C@@H]2O[C@H](CO)[C@@H](O)[C@H](O)[C@H]2O[C@H]2C[C@](C)(N)[C@H](O)[C@H](C)O2)Oc2ccc(cc2Cl)[C@H]1O [Vancomycin hydrochloride]
Ave. Cumulative Amt VCM Released ([1]; 0.5 hr): 0.00 ± 0.00 µg
Ave. Cumulative Amt VCM Released ([1]; 1.0 hr): 0.00 ± 0.00 µg
Ave. Cumulative Amt VCM Released ([1]; 1.5 hr): 1.93 ± 0.38 µg
Ave. Cumulative Amt VCM Released ([1]; 2.0 hr): 4.20 ± 0.99 µg
Ave. Cumulative Amt VCM Released ([1]; 2.5 hr): 7.15 ± 1.82 µg
Papp at 2.5 hr, 5 mg/ml [2]: 0.41 ± 0.07 ×10⁻⁶ cm/s
